Where two headings read alike, the source gives them in different places.
Columns and labels:
human ocular surface = conditions: for Irritancy, delivery unit: wiped across the orbital skin
Protocol: Subjects received different ethanol-water concentrations either in eye drops or via the delivery unit. Subjects were asked to report irritation, stinging, burning sensations, or pain in the 2 to 5 min after application. The intensity of the subjective eye sensation was rated as 0, 1, 2 or 3 with: 0 as no effect; 1 as slight; 2 as a clear-cut effect; and 3 as severe.

TRPM8 receptor = biological target: T1, TRPM8 receptor (Homo sapiens, UniProt Q7Z2W7); assay: Receptor assay, fluorescence (Relative Fluorescence Units), ChanTest; format: cell-based; conditions: FIG. 4
T1 construct: ChanTest Corporation
Protocol: FIG. 4 is a graph of fluorescence (Relative Fluourescence Units; % Maximum) of test compounds, as a function of the logarithm of the concentration of the test compound (μM). The compounds tested were 2-4 (circle), 2-5 (square), 2-6 (inverted triangle), 2-7 (diamond), and 2-8 (star), representing the 1 [di-sec-butyl-phosphinoyl]-butane, pentane, hexane, heptane, and octane analogs, respectively. The receptor assays were conducted by ChanTest Corporation, Cleveland, Ohio 44128. […] The 95% confidence intervals of 2-5 to 2-8 overlap.
(§1) FIG. 5. illustrates the activity of 2-5 on cells transfected with the TRPA1 and TRPV1. TRPA1 and TRPV1 receptors mediate nociception: that is, stimulation of these receptors results in irritation and pain. Capsaicin and mustard oil are the positive control substances for TRPV1 and TRPA1, respectively.

TRPA1 = biological target: T2, TRPA1 (Homo sapiens, UniProt O75762); assay: Activity on TRPA1 transfected cells; format: cell-based; conditions: FIG. 5; mustard oil positive control
T2 construct: expressed in transfected cells
T2 sequence (O75762 whole entry, species assumed): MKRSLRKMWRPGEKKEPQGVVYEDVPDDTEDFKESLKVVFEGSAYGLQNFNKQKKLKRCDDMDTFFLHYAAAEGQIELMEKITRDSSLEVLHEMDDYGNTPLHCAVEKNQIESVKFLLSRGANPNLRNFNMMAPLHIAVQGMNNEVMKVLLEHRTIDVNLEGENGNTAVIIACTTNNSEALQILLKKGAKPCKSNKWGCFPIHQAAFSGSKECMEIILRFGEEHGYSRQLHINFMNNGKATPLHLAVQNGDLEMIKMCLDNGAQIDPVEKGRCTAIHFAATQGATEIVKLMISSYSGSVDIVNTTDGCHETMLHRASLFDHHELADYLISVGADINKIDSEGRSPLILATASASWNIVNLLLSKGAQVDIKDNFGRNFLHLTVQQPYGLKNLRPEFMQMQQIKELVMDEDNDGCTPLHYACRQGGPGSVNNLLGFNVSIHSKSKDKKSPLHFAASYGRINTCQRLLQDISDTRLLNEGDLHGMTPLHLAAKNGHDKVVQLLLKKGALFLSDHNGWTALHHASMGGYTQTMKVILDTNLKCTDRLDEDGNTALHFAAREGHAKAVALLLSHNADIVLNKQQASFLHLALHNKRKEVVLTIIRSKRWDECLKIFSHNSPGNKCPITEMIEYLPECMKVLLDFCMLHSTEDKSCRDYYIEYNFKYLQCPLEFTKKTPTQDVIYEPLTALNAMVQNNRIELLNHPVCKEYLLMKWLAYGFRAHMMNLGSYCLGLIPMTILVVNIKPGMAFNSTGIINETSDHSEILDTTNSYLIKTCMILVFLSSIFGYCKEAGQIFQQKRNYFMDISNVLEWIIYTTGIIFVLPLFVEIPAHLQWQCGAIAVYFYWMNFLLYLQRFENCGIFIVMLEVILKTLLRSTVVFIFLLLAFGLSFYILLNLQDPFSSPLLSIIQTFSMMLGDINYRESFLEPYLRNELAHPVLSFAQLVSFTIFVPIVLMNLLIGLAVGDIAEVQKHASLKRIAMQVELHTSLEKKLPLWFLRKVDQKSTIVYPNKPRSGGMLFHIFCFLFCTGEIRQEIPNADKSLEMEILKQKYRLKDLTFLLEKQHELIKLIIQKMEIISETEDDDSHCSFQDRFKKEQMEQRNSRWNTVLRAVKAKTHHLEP
Source text: as §1

TRPV1 = biological target: T3, TRPV1 (Homo sapiens, UniProt Q8NER1); assay: Activity on TRPV1 transfected cells; format: cell-based; conditions: FIG. 5; capsaicin positive control
T3 construct: expressed in transfected cells
T3 sequence (Q8NER1 whole entry, species assumed): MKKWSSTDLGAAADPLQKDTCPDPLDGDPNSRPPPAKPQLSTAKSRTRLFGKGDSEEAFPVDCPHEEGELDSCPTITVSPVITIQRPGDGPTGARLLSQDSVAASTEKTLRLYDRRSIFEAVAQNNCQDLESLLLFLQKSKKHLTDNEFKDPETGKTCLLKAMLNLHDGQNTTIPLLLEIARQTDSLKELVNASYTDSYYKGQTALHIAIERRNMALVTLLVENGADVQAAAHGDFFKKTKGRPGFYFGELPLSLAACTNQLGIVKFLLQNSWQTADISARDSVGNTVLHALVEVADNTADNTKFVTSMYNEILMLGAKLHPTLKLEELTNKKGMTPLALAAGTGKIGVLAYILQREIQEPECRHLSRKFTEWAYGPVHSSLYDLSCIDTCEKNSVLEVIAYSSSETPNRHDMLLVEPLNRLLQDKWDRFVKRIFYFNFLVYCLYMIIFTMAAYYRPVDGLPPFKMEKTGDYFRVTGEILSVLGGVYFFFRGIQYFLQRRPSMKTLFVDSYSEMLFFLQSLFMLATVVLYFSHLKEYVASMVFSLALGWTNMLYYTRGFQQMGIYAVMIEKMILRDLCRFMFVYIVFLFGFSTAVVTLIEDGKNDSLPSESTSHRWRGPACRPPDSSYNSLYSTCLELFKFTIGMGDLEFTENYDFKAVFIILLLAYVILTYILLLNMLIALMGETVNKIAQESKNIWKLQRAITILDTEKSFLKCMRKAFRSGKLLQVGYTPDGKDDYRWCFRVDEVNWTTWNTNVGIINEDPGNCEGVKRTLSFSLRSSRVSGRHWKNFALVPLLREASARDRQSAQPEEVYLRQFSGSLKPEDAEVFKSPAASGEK
Source text: as §1

skin of the eyelids = assay: Irritation when applied in vivo to the skin of the eyelids; conditions: compared among analogs 2-4 to 2-8
ocular surface = assay: Periocular spray of 2-5 over the closed eye in normal subjects and dry eyes syndrome patients; format: in vivo, human
Protocol: Sensory discomfort of the eye is a conspicuous symptom in patients diagnosed with “dry eyes disease.” The study described below was conducted by Prof. K. C. Yoon of the Department of Ophthalmology, Chonnam National University Medical School, Gwangju, South Korea. Prof. Yoon is an acknowledged expert on the investigation of dry eyes disease and has published extensively on this subject [e.g. Yoon, K.-C. et al. Application of umbilical cord serum eyedrops for the treatment of dry eye syndrome. Cornea 25, 268-72 (2006). Yoon, K.-C. et al. Comparison of autologous serum and umbilical cord serum eye drops for dry eye syndrome. Am. J. Ophthalmol. 144, 86-92 (2007).] The methods used in these two publications were also used in the experiments described below. This report was presented as an Oral Communication entitled “Effect of a periocular spray of a TRPM8 agonist on the ocular surface” at the 110th Meeting of the Korean Ophthalmological Society, Bexco, Busan, Korea on Apr. 13, 2014.
2-5 was prepared as a 2 mg/mL solution in distilled water and administered as a spray [sprayed volume of ˜0.1 mL] over the closed right eye of test subjects. There were 20 subjects in the normal group [9 males/11 females] and 17 subjects in the group with defined “dry eyes syndrome” [7 males/10 females]. Exclusion criteria for patient selection was age of <18 years, systemic medication that may affect tear secretion, previous punctal plug insertion, history of contact lenses use, previous ocular surgery or trauma, pregnancy or lactation, and ocular or systemic disease. The average age of the subjects was 29 years, and both groups had normal values for visual acuity, intraocular pressure, and corneal sensitivity [Cochet-Bonnet esthesiometry, measured with a microfilament]. […] The score for keratoepitheliopathy [National Eye Institute system] was 0.1±0.3 and 2.5±1.7, in the normal vs the “dry eyes syndrome” group.
Subjective symptoms were graded on a numerical score. A visual analog scale score [0 to 10 units] was used for grading the degree of soothing and cooling sensation on the ocular surface. For symptoms of the dry eyes syndrome, a scale of zero to four was used, with zero representing no symptoms and four representing very severe symptoms that caused discomfort and interfered with normal activities. These methods have been described in detail elsewhere and are incorporated by reference [Yoon, K.-C. et al. Application of umbilical cord serum eyedrops for the treatment of dry eye syndrome. Cornea 25, 268-72 (2006). Yoon, K.-C. et al. Comparison of autologous serum and umbilical cord serum eye drops for dry eye syndrome. Am. J. Ophthalmol. 144, 86-92 (2007)].
The onset was less than 3 min and reached maximal effect in the first 10 min. The mean duration of cooling was 42±8 min and all cooling sensations disappeared by 1 hr. For patients previously diagnosed with “dry eyes” disease there was a reduction of symptom score from 1.8 to 0.5, a highly significant event [P<0.001]. […] However, the magnitude of the effect was not considered clinically significant and may have been due to increased sensitivity of the dry eyes patients to foreign solutions applied to the ocular surface. The keratoepitheliopathy score was not affected by treatment.
The mechanical sensitivity of the cornea, measured with the Cochet-Bonnet esthesiometer, was not affected in all patients, in the 1.5 hr test period with […], spaced 30 min apart. This is an important observation from the viewpoint of safety in use, because numbness of the corneal surface will increase risks of eye injury from foreign materials.

[1] = ethanol 5% wt/vol in water, scale 0-3
[2] = ethanol 10% wt/vol in water, scale 0-3
[3] = dry eyes group, first 30 min, not considered clinically significant

T1 sequence (Q7Z2W7 whole entry): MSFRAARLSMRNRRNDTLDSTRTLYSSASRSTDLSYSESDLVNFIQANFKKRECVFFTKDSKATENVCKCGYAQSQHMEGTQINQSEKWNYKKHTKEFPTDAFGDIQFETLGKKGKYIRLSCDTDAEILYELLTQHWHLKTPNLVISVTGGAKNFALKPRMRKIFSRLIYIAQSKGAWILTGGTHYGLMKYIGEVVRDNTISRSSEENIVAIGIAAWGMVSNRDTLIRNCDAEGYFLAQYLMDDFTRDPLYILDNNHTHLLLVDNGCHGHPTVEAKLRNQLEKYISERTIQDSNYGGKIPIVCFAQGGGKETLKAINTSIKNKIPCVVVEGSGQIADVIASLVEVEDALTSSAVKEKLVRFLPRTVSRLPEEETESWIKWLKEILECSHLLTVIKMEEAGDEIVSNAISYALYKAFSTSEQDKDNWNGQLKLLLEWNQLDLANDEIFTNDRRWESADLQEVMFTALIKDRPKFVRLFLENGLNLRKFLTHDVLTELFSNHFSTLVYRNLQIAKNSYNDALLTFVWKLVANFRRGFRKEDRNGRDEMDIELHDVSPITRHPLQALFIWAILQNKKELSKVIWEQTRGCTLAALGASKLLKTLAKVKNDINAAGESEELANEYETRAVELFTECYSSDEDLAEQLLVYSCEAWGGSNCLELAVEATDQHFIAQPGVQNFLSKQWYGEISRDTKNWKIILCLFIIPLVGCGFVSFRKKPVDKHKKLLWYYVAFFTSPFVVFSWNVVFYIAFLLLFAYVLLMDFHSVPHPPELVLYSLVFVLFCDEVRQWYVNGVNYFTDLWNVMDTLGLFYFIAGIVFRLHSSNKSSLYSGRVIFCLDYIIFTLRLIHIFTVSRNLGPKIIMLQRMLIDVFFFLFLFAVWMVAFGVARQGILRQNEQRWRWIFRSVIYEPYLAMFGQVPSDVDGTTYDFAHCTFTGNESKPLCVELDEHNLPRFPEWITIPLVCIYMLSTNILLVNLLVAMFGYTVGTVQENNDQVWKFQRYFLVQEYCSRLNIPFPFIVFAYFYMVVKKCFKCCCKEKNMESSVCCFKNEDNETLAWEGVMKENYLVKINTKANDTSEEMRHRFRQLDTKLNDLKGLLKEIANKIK

For `CCO` [Ethanol], the Sensation upon delivery (human ocular surface; 5% ethanol solution as an eye drop) was “clearly aversive as an eye drop, producing stinging and pain upon delivery”, the Sensation upon delivery (human ocular surface; 20% applied to the eye with a wipe) was “mild burning sensations in two subjects” and the “Irritancy, eye drops” value (human ocular surface; ethanol 2.5% wt/vol in water, scale 0-3 (0 no effect, 3 strongly irritating), N = 8 experiments) was 0. The “Irritancy, delivery unit” value (human ocular surface; ethanol 2.5% wt/vol in water, scale 0-3) was 0, the “Irritancy, eye drops” value (human ocular surface; [1]) was “+2” and the “Irritancy, delivery unit” value (human ocular surface; [1]) was 0. For the same compound, the “Irritancy, eye drops” value (human ocular surface; [2]) was “+3”, the “Irritancy, delivery unit” value (human ocular surface; [2]) was 0 and the “Irritancy, delivery unit” value (human ocular surface; ethanol 20% wt/vol in water, scale 0-3) was “+1”. For the same compound, the “Change in decreased sensitivity to irritation, swab method versus eye drops” value (human ocular surface; ethanol/water) was ~4 fold.

`CCCCCP(=O)(C(C)CC)C(C)CC` (centres unmarked) [2-5, 1-di(sec-butyl) phosphinoyl-pentane] was tested, and the “Potency relative to 1-menthol in the same assay” value (“Potency relative to 1-menthol” for short) (TRPM8 receptor) was 2.2 ×, the “Stimulation of TRPA1” value (TRPA1) was “does not stimulate” and the “Stimulation of TRPV1” value (TRPV1) was “does not stimulate”. The “Irritation when applied to the skin of the eyelids” value (skin of the eyelids) was “minimal irritation”, the “Soothing and cooling sensations on the ocular surface after blinking” value (ocular surface; 2 mg/mL in distilled water, spray ~0.1 mL over closed eye) was “all subjects felt soothing and cooling sensations” and the “Mean duration of cooling” value (ocular surface; 2 mg/mL spray over closed eye) was 42 ± 8 min. The Onset of cooling (ocular surface; 2 mg/mL spray over closed eye) was “less than 3 min”, the “Time by which all cooling sensations disappeared” value (ocular surface; 2 mg/mL spray over closed eye) was ≤ 1 h and the “Time of maximal effect” value (ocular surface; 2 mg/mL spray over closed eye) was ≤ 10 min. The Keratoepitheliopathy score (ocular surface; after treatment) was “not affected”, the “Mechanical sensitivity of the cornea (Cochet-Bonnet esthesiometer)” value (ocular surface; all patients, 1.5 hr test period, 5 points of measurement) was “not affected” and the “Tear Film BUT” value (ocular surface; [3]) was “slightly elevated”. For the same compound, the Tear secretion rates (ocular surface; [3]) was “slightly elevated”, the “Symptom score after treatment” value (ocular surface; dry eyes patients, scale zero to four, reduced from 1.8, P<0.001) was 0.5 and the “Tear Film BUT” value (ocular surface; normal group) was “not significantly affected”. The Tear secretion rates (ocular surface; normal group) was “not significantly affected”.

In the case of `CCCCCCP(=O)(C(C)CC)C(C)CC` (centres unmarked) [2-6, 1 [di-sec-butyl-phosphinoyl]-hexane], the “Potency relative to 1-menthol” value (TRPM8 receptor) is reported as 4-9 ×.

With `CCCCP(=O)(C(C)CC)C(C)CC` (centres unmarked) [2-4, 1 [di-sec-butyl-phosphinoyl]-butane] the “Potency relative to 1-menthol” value (TRPM8 receptor) was 0.3 ×.

With `CCCCCCCCP(=O)(C(C)CC)C(C)CC` (centres unmarked) [2-8, 1 [di-sec-butyl-phosphinoyl]-octane] the “Potency relative to 1-menthol” value (TRPM8 receptor) was 3.0 ×.

— patent US20150290029A1, “Delivery Systems for Agents to treat Ocular Discomfort” (priority 2014, published 2015)
